pKd: −log10 of the molar value.

Consider 4 compounds from publication PMC3044687, “The C-Terminal Domain of the Arabinosyltransferase Mycobacterium tuberculosis EmbC Is a Lectin-Like Carbohydrate Binding Module” (PLoS Pathogens, 2011).

Assay [1] concerns the target EmbC^CT (C-terminal domain of M. tuberculosis EmbC, residues 719–1094) (Mycobacterium tuberculosis, UniProt P9WNL5). The experiment in a line: Solution binding assay by intrinsic tryptophan fluorescence, wild-type EmbC^CT. Conditions: wild-type EmbC^CT 20 µM, 50 mM KH2PO4 pH 7.9, 300 mM NaCl; single site saturation fit. As for the experimental part: Intrinsic tryptophan fluorescence (ITF) experiments were carried out using a PTI QuantaMaster 40 spectrofluorimeter, recording data with the FeliX32 software package (PTI, Birmingham, New Jersey, USA). The excitation wavelength was set to 294 nm and the fluorescence emission (Femission) was recorded between 300–400 nm for each ligand aliquot added to a 200 µl solution containing 20 µM EmbC^CT in 50 mM KH2PO4 (pH 7.9), 300 mM NaCl. […] The change in fluorescence emission (ΔFemission) was calculated by subtracting Femission (recorded 2 min after each ligand addition) from Femission^max, and the data was then plotted against ligand concentration, [L] (3 independent experiments). A plot of ΔFemission at λ = 338 nm vs. [L] was fitted to the saturation binding equation using GraphPad Prism software: [drawing 1]

Assay [2] has as its system Araf transferase (isolated mycobacterial membranes). Conditions: incubated with [14C]-labelled Araf-donor DPA and isolated mycobacterial membranes; cited from earlier work.

Chain of EmbC^CT (C-terminal domain of M. tuberculosis EmbC, residues 719–1094) (P9WNL5 719-1094 limits assumed): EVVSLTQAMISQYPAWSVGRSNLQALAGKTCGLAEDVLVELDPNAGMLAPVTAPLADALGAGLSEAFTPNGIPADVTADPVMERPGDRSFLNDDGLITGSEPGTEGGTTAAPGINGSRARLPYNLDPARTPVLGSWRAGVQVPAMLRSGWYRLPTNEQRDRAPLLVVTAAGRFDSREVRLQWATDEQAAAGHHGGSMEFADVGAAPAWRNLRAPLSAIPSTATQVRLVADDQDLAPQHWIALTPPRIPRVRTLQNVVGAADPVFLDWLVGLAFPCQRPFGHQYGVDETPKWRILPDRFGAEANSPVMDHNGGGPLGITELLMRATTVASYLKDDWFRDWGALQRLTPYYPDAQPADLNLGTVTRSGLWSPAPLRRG

Turning to `CCCCCCCCO[C@H]1O[C@H](CO[C@H]2O[C@H](CO[C@H]3O[C@H](CO[C@H]4O[C@H](CO[C@H]5O[C@H](CO)[C@@H](O)[C@@H]5O)[C@@H](O)[C@@H]4O)[C@@H](O)[C@@H]3O)[C@@H](O)[C@@H]2O)[C@@H](O)[C@@H]1O` [Ara(1→5)4Ara-O-C8, [α-D-Araf-(1→5)]4-α-D-Araf-O-(CH2)7CH3], the Fmax in assay [1] is reported as 0.157.

In assay [1], `CCCCCCCCO[C@H]1O[C@H](CO[C@H]2O[C@H](CO[C@H]3O[C@H](CO)[C@@H](O)[C@@H]3O)[C@@H](O)[C@@H]2O)[C@@H](O)[C@@H]1O` [Ara(1→5)2Ara-O-C8, [α-D-Araf-(1→5)]2-α-D-Araf-O-(CH2)7CH3] had an Fmax of 0.105 and a negative-log Kd (pKd) of 4.60.

The compound `CCCCCCCCO[C@H]1O[C@H](CO[C@H]2O[C@H](CO)[C@@H](O)[C@@H]2O)[C@@H](O)[C@@H]1O` [Ara(1→5)Ara-O-C8, α-D-Araf-(1→5)-α-D-Araf-O-(CH2)7CH3] had an Fmax in assay [1] of 0.22. Moreover, the “acceptor activity (in words)” value in assay [2] was “potent acceptor mimics”.

In assay [1], `CO[C@H]1O[C@H](CO[C@H]2O[C@H](CO)[C@@H](O)[C@@H]2O)[C@@H](O)[C@@H]1O` [Ara(1→5)Ara-O-C1, α-D-Araf-(1→5)-α-D-Araf-O-CH3] showed an Fmax of 0.26 and a pKd of 4.96.

As a reminder, the pKd is the negative decadic logarithm of the Kd, by convention in mol/L.
